Broadly, the IC50 is the midpoint of a concentration-inhibition curve.

Molecules are shown by their SMILES.

The results in this text go back to US12522595B2, “Bicyclic ether O-glycoprotein-2-acetamido-2-deoxy-3-D-glucopyranosidase inhibitors” (BIOGEN MA INC., priority 2019, dated 2026).

This assay deals with T1, Recombinant full length human OGA enzyme (Homo sapiens, UniProt O60502).
T1 construct: Recombinant full length human OGA enzyme was purchased from Origene; purchased Origene
T1 sequence (O60502 1-916): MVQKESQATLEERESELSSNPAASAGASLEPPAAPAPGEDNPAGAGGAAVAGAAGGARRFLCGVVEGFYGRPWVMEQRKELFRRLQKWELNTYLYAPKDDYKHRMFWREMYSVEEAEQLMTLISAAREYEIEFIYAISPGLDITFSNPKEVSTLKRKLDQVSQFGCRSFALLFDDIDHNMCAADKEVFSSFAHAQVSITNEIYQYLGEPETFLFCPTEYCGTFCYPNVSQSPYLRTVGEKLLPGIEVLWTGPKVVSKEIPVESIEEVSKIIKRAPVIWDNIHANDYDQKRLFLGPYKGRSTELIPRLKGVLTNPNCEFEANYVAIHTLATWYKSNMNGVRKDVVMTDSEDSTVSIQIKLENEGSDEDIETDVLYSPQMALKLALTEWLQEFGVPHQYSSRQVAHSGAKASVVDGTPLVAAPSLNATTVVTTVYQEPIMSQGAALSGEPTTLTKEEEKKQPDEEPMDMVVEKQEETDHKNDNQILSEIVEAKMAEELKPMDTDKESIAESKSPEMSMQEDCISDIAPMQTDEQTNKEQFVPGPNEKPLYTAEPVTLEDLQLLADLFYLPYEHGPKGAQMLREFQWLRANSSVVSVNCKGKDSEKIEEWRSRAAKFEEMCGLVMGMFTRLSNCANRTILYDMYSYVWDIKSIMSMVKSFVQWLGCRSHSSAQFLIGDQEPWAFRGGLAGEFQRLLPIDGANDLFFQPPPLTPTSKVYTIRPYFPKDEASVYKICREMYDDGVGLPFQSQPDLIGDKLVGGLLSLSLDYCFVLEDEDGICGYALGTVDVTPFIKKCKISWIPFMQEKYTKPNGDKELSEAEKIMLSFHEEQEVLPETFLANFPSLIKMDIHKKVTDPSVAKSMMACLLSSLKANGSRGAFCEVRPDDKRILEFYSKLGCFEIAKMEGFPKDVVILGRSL
Nature of the assay: OGA enzyme inhibition biochemical assay. Particulars: 1 nM OGA, 100 μM 4-MUGlcNAc (Km), pH 6.4, 90 minutes at room temperature, 10-point dose-response from 20 μM. The essentials: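 1 nM OGA with 100 μM 4-MUGlcNAc (Km) in McIlvaine buffer pH 6.4, 0.01% BSA, 90 min at room temperature; quenched with 3M glycine pH 10, fluorescence Ex 355/Em 460 nm. 10-point, 4-fold dilutions from 20 μM; 4-parameter variable-slope fit.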
Turning to `CC(=O)Nc1ncc(CN2C[C@H](Oc3nccc4oc(C)cc34)C[C@@H]2C)s1` [Example 16, N-(5-(((2S,4R)-2-methyl-4-((2-methylfuro[3,2-c]pyridin-4-yl)oxy)pyrrolidin-1-yl)methyl)thiazol-2-yl)acetamide], the IC50 is < 1 nM.

With `COc1cnc2c(O[C@@H]3C[C@H](C)N(Cc4sc(NC(C)=O)nc4F)C3)cnn2c1` [Example 121, N-(4-fluoro-5-(((2S,4R)-4-((6-methoxypyrazolo[1,5-a]pyrimidin-3-yl)oxy)-2-methylpyrrolidin-1-yl)methyl)thiazol-2-yl)acetamide], the IC50 was < 1 nM.

On to `CC(=O)Nc1ncc(CN2C[C@H](Oc3cc4cn(C)nc4cn3)C[C@@H]2C)s1` [Example 87, N-(5-(((2S,4R)-2-methyl-4-((2-methyl-2H-pyrazolo[3,4-c]pyridin-5-yl)oxy)pyrrolidin-1-yl)methyl)thiazol-2-yl)acetamide], for which the IC50 was < 1 nM.

`CC(=O)Nc1ncc(CN2C[C@H](Oc3ccc4nnc(C(F)(F)F)n4n3)C[C@@H]2C)s1` [Example 18, N-(5-(((2S,4R)-2-methyl-4-((3-(trifluoromethyl)-[1,2,4]triazolo[4,3-b]pyridazin-6-yl)oxy)pyrrolidin-1-yl)methyl)thiazol-2-yl)acetamide]: the IC50 is < 1 nM.

As for `CC(=O)Nc1ncc(CN2C[C@H](Oc3nccc4ccsc34)C[C@@H]2C)s1` [Example 11, N-(5-(((2S,4R)-2-methyl-4-(thieno[2,3-c]pyridin-7-yloxy)pyrrolidin-1-yl)methyl)thiazol-2-yl)acetamide], the half-inhibitory concentration (IC50) is < 1 nM.

Regarding `CC(=O)Nc1nc(F)c(CN2C[C@H](Oc3cn4nccc4cn3)C[C@@H]2C)s1` [Example 171, N-(4-fluoro-5-(((2S,4R)-2-methyl-4-(pyrazolo[1,5-a]pyrazin-6-yloxy)pyrrolidin-1-yl)methyl)thiazol-2-yl)acetamide], the IC50 is < 1 nM.

With `CC(=O)Nc1ncc(CN2C[C@H](Oc3ccc4sccc4n3)C[C@@H]2C)s1` [Example 4, N-(5-(((2S,4R)-2-methyl-4-(thieno[3,2-b]pyridin-5-yloxy)pyrrolidin-1-yl)methyl)thiazol-2-yl)acetamide], the IC50 is < 1 nM.

Regarding `COc1ccc2ccc(O[C@@H]3C[C@H](C)N(Cc4cnc(NC(C)=O)s4)C3)nc2c1` [Example 79, N-(5-(((2S,4R)-4-((7-methoxyquinolin-2-yl)oxy)-2-methylpyrrolidin-1-yl)methyl)thiazol-2-yl)acetamide], the IC50 was < 1 nM.

Turning to `COc1nc(O[C@@H]2C[C@H](C)N(Cc3sc(NC(C)=O)nc3F)C2)cc2cc(F)ccc12` [Example 131, N-(4-fluoro-5-(((2S,4R)-4-((6-fluoro-1-methoxyisoquinolin-3-yl)oxy)-2-methylpyrrolidin-1-yl)methyl)thiazol-2-yl)acetamide], the IC50 was < 1 nM.

In the case of `CC(=O)Nc1nc(F)c(CN2C[C@H](Oc3ccc4nccn4n3)C[C@@H]2C)s1` [Example 108, N-(4-fluoro-5-(((2S,4R)-4-(imidazo[1,2-b]pyridazin-6-yloxy)-2-methylpyrrolidin-1-yl)methyl)thiazol-2-yl)acetamide], the IC50 was < 1 nM.

`CC(=O)Nc1ncc(CN2C[C@H](Oc3nccc4occc34)C[C@@H]2C)s1` [Example 22, N-(5-(((2S,4R)-4-(furo[3,2-c]pyridin-4-yloxy)-2-methylpyrrolidin-1-yl)methyl)thiazol-2-yl)acetamide]: the IC50 worked out at 2.1 nM.

`CC(=O)Nc1nc(F)c(CN2C[C@H](Oc3nccn4cnnc34)C[C@@H]2C)s1` [Example 101, N-(5-(((2S,4R)-4-([1,2,4]triazolo[4,3-a]pyrazin-8-yloxy)-2-methylpyrrolidin-1-yl)methyl)-4-fluorothiazol-2-yl)acetamide]: the half-maximal inhibitory concentration (IC50) is < 1 nM.

For `CCc1cc2c(O[C@@H]3C[C@H](C)N(Cc4cnc(NC(C)=O)s4)C3)nccc2o1` [Example 15, N-(5-(((2S,4R)-4-((2-ethylfuro[3,2-c]pyridin-4-yl)oxy)-2-methylpyrrolidin-1-yl)methyl)thiazol-2-yl)acetamide], the IC50 is < 1 nM.

In the case of `CC(=O)Nc1ncc(CN2C[C@H](Oc3nccc4oc(C(N)=O)cc34)C[C@@H]2C)s1` [Example 25, 4-(((3R,5S)-1-((2-acetamidothiazol-5-yl)methyl)-5-methylpyrrolidin-3-yl)oxy)furo[3,2-c]pyridine-2-carboxamide], the half-maximal inhibitory concentration (IC50) was 2.8 nM.

Consider `CC(=O)Nc1ncc(CN2C[C@H](Oc3ccnc4cc(F)ccc34)C[C@@H]2C)s1` [Example 17, N-(5-(((2S,4R)-4-((7-fluoroquinolin-4-yl)oxy)-2-methylpyrrolidin-1-yl)methyl)thiazol-2-yl)acetamide], for which the IC50 is < 1 nM.

Turning to `CC(=O)Nc1nc(F)c(CN2C[C@H](Oc3cnc4ccnn4c3)C[C@@H]2C)s1` [Example 170, N-(4-fluoro-5-(((2S,4R)-2-methyl-4-(pyrazolo[1,5-a]pyrimidin-6-yloxy)pyrrolidin-1-yl)methyl)thiazol-2-yl)acetamide], the IC50 is < 1 nM.

For the molecule `CC(=O)Nc1nc(F)c(CN2C[C@H](Oc3ccc4cn(C)nc4c3)C[C@@H]2C)s1` [Example 51, N-(4-fluoro-5-(((2S,4R)-2-methyl-4-((2-methyl-2H-indazol-6-yl)oxy)pyrrolidin-1-yl)methyl)thiazol-2-yl)acetamide], the IC50 is < 1 nM.

For the molecule `CC(=O)Nc1ncc(CN2C[C@H](Oc3cn4nc(C)cc4cn3)C[C@@H]2C)s1` [Example 53, N-(5-(((2S,4R)-2-methyl-4-((2-methylpyrazolo[1,5-a]pyrazin-6-yl)oxy)pyrrolidin-1-yl)methyl)thiazol-2-yl)acetamide], the concentration for half-maximal inhibition (IC50) was < 1 nM.

As to `CC(=O)Nc1nc(F)c(CN2C[C@H](Oc3nncc4cc(F)ccc34)C[C@@H]2C)s1` [Example 133, N-(4-fluoro-5-(((2S,4R)-4-((6-fluorophthalazin-1-yl)oxy)-2-methylpyrrolidin-1-yl)methyl)thiazol-2-yl)acetamide], the IC50 is < 1 nM.

In the case of `CC(=O)Nc1ncc(CN2C[C@H](Oc3ccnc4ccsc34)C[C@@H]2C)s1` [Example 5, N-(5-(((2S,4R)-2-methyl-4-(thieno[3,2-b]pyridin-7-yloxy)pyrrolidin-1-yl)methyl)thiazol-2-yl)acetamide], the IC50 is < 1 nM.

Take `CC(=O)Nc1ncc(CN2C[C@H](Oc3ncc4c(n3)CCCC4)C[C@@H]2C)s1` [Example 10, N-(5-(((2S,4R)-2-methyl-4-((5,6,7,8-tetrahydroquinazolin-2-yl)oxy)pyrrolidin-1-yl)methyl)thiazol-2-yl)acetamide]: the IC50 was < 1 nM.

On to `CC(=O)Nc1nc(F)c(CN2C[C@H](Oc3ccc4cccnc4n3)C[C@@H]2C)s1` [Example 82, N-(5-(((2S,4R)-4-((1,8-naphthyridin-2-yl)oxy)-2-methylpyrrolidin-1-yl)methyl)-4-fluorothiazol-2-yl)acetamide], for which the IC50 was < 1 nM.

Consider `CC(=O)Nc1nc(F)c(CN2C[C@H](Oc3ncc4ccn(C)c4n3)C[C@@H]2C)s1` [Example 110, N-(4-fluoro-5-(((2S,4R)-2-methyl-4-((7-methyl-7H-pyrrolo[2,3-d]pyrimidin-2-yl)oxy)pyrrolidin-1-yl)methyl)thiazol-2-yl)acetamide], for which the IC50 was < 1 nM.

As for `CC(=O)Nc1ncc(CN2C[C@H](Oc3cccc4cnn(C)c34)C[C@@H]2C)s1` [Example 160, N-(5-(((2S,4R)-2-methyl-4-((1-methyl-1H-indazol-7-yl)oxy)pyrrolidin-1-yl)methyl)thiazol-2-yl)acetamide], the IC50 came to 2.4 nM.

With `CC(=O)Nc1nc(F)c(CN2C[C@H](Oc3ccc4nccnc4n3)C[C@@H]2C)s1` [Example 117, N-(4-fluoro-5-(((2S,4R)-2-methyl-4-(pyrido[2,3-b]pyrazin-6-yloxy)pyrrolidin-1-yl)methyl)thiazol-2-yl)acetamide], the IC50 is < 1 nM.

As for `CC(=O)Nc1nc(F)c(CN2C[C@H](Oc3ccc4nnn(C)c4n3)C[C@@H]2C)s1` [Example 150, N-(4-fluoro-5-(((2S,4R)-2-methyl-4-((3-methyl-3H-[1,2,3]triazolo[4,5-b]pyridin-5-yl)oxy)pyrrolidin-1-yl)methyl)thiazol-2-yl)acetamide], the IC50 was < 1 nM.

For the molecule `CC(=O)Nc1nc(F)c(CN2C[C@H](Oc3ccn4nncc4c3)C[C@@H]2C)s1` [Example 149, N-(5-(((2S,4R)-4-([1,2,3]triazolo[1,5-a]pyridin-5-yloxy)-2-methylpyrrolidin-1-yl)methyl)-4-fluorothiazol-2-yl)acetamide], the IC50 was < 1 nM.
